Format in all cases: in vivo
Experiment [1] has as its system Diabrotica balteata (corn root worm). The experiment is described as follows: Example B3: Activity against Diabrotica balteata (larvae L2 on maize sprouts, feeding/contact, preventative). Particulars: 120 h, maize sprouts sprayed, larval mortality and growth regulation after 5 days. As to the method:
Example B3: Activity Against Diabrotica balteata (Corn Root Worm) (Larvae L2 on Maize Sprouts, Feeding/Contact, Preventative) Maize sprouts, placed on an agar layer in 24 well micro titer plates were treated with test solutions by spraying. After drying, the MTPs were infested with L2 larvae (6-10 per well). After an incubation period of 5 days, samples were checked for larval mortality and growth regulation.

The test system of experiment [2] is Euschistus heros (neotropical brown stink bug). Nature of the experiment: Example B10: Activity against Euschistus heros. Particulars: 120 h, soybean leaf sprayed, N-2 nymphs, mortality 5 days after infestation. As for the experimental part: Example B10: Activity Against Euschistus heros (Neotropical Brown Stink Bug) Soybean leaf on agar in 24-well microtiter plates were sprayed with aqueous test solutions prepared from 10,000 ppm DMSO stock solutions. After drying the leaf were infested with N-2 nymphs. The samples were assessed for mortality 5 days after infestation.

For experiment [3], the system named is Spodoptera littoralis (Egyptian cotton leaf worm). Nature of the experiment: Example B1: Activity against Spodoptera littoralis (larvicide, feeding/residual contact, preventive). Particulars: foliar, 72 h, cotton leaf discs sprayed, L1 larvae, mortality, repellent effect, feeding behaviour, growth regulation 3 days after treatment. An excerpt:
Example B1: Activity Against Spodoptera littoralis (Egyptian Cotton Leaf Worm) (Larvicide, Feeding/Residual Contact Activity, Preventive) Cotton leaf discs were placed on agar in a 24-well microtiter plate and sprayed with test solutions. After drying, the leaf discs were infested with 5 L1 larvae. The samples were checked for mortality, repellent effect, feeding behaviour, and growth regulation 3 days after treatment (DAT).

For experiment [4], the system named is Plutella xylostella (diamond back moth). The experiment is described as follows: Example B2: Activity against Plutella xylostella (larvicide, feeding/residual contact, preventive). Conditions: 120 h, artificial diet, L2 larvae, larval mortality, antifeedant, growth regulation after 5 days. As to the method: Example B2: Activity Against Plutella xylostella (Diamond Back Moth) (Larvicide, Feeding/Residual Contact Activity, Preventive) 24-well microtiter plate (MTP) with artificial diet was treated with test solutions by pipetting. After drying, the MTPs were infested with L2 larvae (10-15 per well). After an incubation period of 5 days, samples were checked for larval mortality, antifeedant and growth regulation.

The subject of experiment [5] is Bemisia tabaci (cotton white fly). The experiment is described as follows: Example B5: Activity against Bemisia tabaci (adulticide contact activity, preventative). Conditions: foliar, 168 h, cotton leaf discs sprayed, adult white flies, mortality 7 DAT. As for the experimental part: Example B5: Activity Against Bemisia tabaci (Cotton White Fly) (Adulticide Contact Activity, Preventative), Adult Cotton leaf discs were placed on agar in a 24-well microtiter plate and sprayed with test solutions. After drying, the leaf discs were infested with adult white flies. After an incubation period of 7 DAT, samples were checked for mortality and special effects (e.g. phytotoxicity).

Experiment [6] deals with Spodoptera littoralis (Egyptian cotton leaf worm). Nature of the experiment: Example B7: Activity against Spodoptera littoralis (systemic activity). Particulars: 120 h, systemic via lettuce roots in agar, mortality, repellent effect, feeding behavior, growth regulation 5 days after infestation. An excerpt: Example B7: Activity Against Spodoptera littoralis (Egyptian Cotton Leaf Worm) (Systemic Activity) Test compounds were applied by pipette into 24 well plates and mixed with agar. Lettuce seeds were placed on the agar and the multi well plate is closed by another plate which contains also agar. After 7 days the roots have absorbed the compound and the lettuce has grown into the lid plate. The lettuce leaves were now cut off into the lid plate. Spodoptera eggs were pipetted through a plastic stencil on a humid gel blotting paper and the plate closed with it. The samples are checked for mortality, repellent effect, feeding behavior, and growth regulation 5 days after infestation.

Experiment [7] has as its system Myzus persicae (green peach aphid). The experiment is described as follows: Example B8: Activity against Myzus persicae (feeding/residual contact, preventive, mixed population). Conditions: foliar, 144 h, sunflower leaf discs sprayed, mixed ages, mortality 6 DAT. As for the experimental part:
Example B8: Activity Against Myzus persicae (Green Peach Aphid) (Feeding/Residual Contact Activity, Preventive), Mixed Population Sunflower leaf discs were placed on agar in a 24-well microtiter plate and sprayed with test solutions. After drying, the leaf discs were infested with an aphid population of mixed ages. After an incubation period of 6 DAT, samples were checked for mortality and special effects (e.g. phytotoxicity).

The structures appear in SMILES notation.

For orientation: pest or weed control means the degree to which the test organism was suppressed or injured, in per cent. Read a low pest or weed control as a weak effect.

Take `CCSc1cc(-c2ccc(C(F)(F)F)cc2)ccc1-c1nc2cc(C(F)(F)F)ncc2n1C` [Compound P33]: the pest or weed control at 400 ppm in experiment [1] and in experiment [2] was above 80% in each case.
Consider `CCS(=O)(=O)c1cc(-c2ccc(C(F)(F)F)cc2)cnc1-c1nc2cc(C(F)(F)F)ncc2n1C` [Compound P2], for which the pest or weed control at 400 ppm in experiment [3], in experiment [4], in experiment [1], in experiment [5], in experiment [7] and in experiment [2] was above 80% throughout. This compound also yielded a pest or weed control at 12.5 ppm in experiment [6] of at least 80%.
As to `CCS(=O)(=O)c1cc(-c2ccccc2SC)cnc1-c1nc2cc(C(F)(F)F)ncc2n1C` [Compound P28], the pest or weed control at 400 ppm in experiment [4], in experiment [1] and in experiment [7] was above 80% each time.
As for `CCSc1cc(-c2ccc(Cl)cc2)cnc1-c1nc2cc(C(F)(F)F)ncc2n1C` [Compound P15, 2-[5-(4-chlorophenyl)-3-ethylsulfanyl-2-pyridyl]-3-methyl-6-(trifluoromethyl)imidazo[4,5-c]pyridine], the pest or weed control at 400 ppm in experiment [3], in experiment [4], in experiment [1] and in experiment [2] was above 80% each time.
`CCS(=O)(=O)c1cc(-c2ccc(-n3cccn3)cc2)cnc1-c1nc2cc(C(F)(F)F)ncc2n1C` [Compound P37]: the pest or weed control at 400 ppm in experiment [3], in experiment [4], in experiment [1], in experiment [7] and in experiment [2] was above 80% in each case.
Take `CCS(=O)(=O)c1cc(-c2ccc(Cl)cc2Cl)cnc1-c1nc2cc(C(F)(F)F)ncc2n1C` [Compound P8]: the pest or weed control at 400 ppm in experiment [3], in experiment [4], in experiment [1], in experiment [5] and in experiment [7] was above 80% in each case.
As for `CCS(=O)(=O)c1cc(-c2cc(F)c(F)cc2F)cnc1-c1nc2cc(C(F)(F)F)ncc2n1C` [Compound P35], the pest or weed control at 400 ppm in experiment [3], in experiment [4], in experiment [1] and in experiment [2] was above 80% each time. This compound registered a pest or weed control at 12.5 ppm in experiment [6] of at least 80%.
For the compound `CCS(=O)(=O)c1cc(-c2cc(C)c(OC)c(C)c2)cnc1-c1nc2cc(C(F)(F)F)ncc2n1C` [Compound P10], the pest or weed control at 400 ppm in experiment [4] and in experiment [1] was above 80% each time.
Regarding `CCS(=O)(=O)c1cc(-c2cc(F)ccc2F)cnc1-c1nc2cc(C(F)(F)F)ncc2n1C` [Compound P11], the pest or weed control at 400 ppm in experiment [3], in experiment [4], in experiment [1], in experiment [7] and in experiment [2] was above 80% throughout.
Regarding `CCc1ccccc1-c1cnc(-c2nc3cc(C(F)(F)F)ncc3n2C)c(S(=O)(=O)CC)c1` [Compound P38], the pest or weed control at 400 ppm in experiment [4] and in experiment [1] was above 80% in each case.
Consider `CCS(=O)(=O)c1cc(-c2ccc([Si](C)(C)C)cc2)cnc1-c1nc2cc(C(F)(F)F)ncc2n1C` [Compound P26], for which the pest or weed control at 400 ppm in experiment [4] and in experiment [1] was above 80% throughout.
As to `CCS(=O)(=O)c1cc(-c2ccc(OC)c(F)c2)cnc1-c1nc2cc(C(F)(F)F)ncc2n1C` [Compound P9], the pest or weed control at 400 ppm in experiment [3], in experiment [4], in experiment [1] and in experiment [7] was above 80% throughout.
Turning to `CCS(=O)(=O)c1cc(-c2cccc(-c3nnc(C)o3)c2)cnc1-c1nc2cc(C(F)(F)F)ncc2n1C` [Compound P20], the pest or weed control at 400 ppm in experiment [3], in experiment [4], in experiment [5] and in experiment [7] was above 80% each time.
On to `CCS(=O)(=O)c1cc(-c2cccc(CC#N)c2)cnc1-c1nc2cc(C(F)(F)F)ncc2n1C` [Compound P29], for which the pest or weed control at 400 ppm in experiment [7] was above 80%.
For the compound `CCS(=O)(=O)c1cc(-c2ccc(Cl)cc2)ccc1-c1nc2cc(C(F)(F)F)ncc2n1C` [Compound P22], the pest or weed control at 400 ppm in experiment [3], in experiment [4], in experiment [1], in experiment [5] and in experiment [2] was above 80% in each case. For the same compound, the pest or weed control at 12.5 ppm in experiment [6] is at least 80%.
For the compound `CCSc1ccc(-c2cnc(-c3nc4cc(C(F)(F)F)ncc4n3C)c(S(=O)(=O)CC)c2)cc1` [Compound P32], the pest or weed control at 400 ppm in experiment [3], in experiment [4], in experiment [1], in experiment [7] and in experiment [2] was above 80% in each case.
`CCS(=O)(=O)c1cc(-c2ccc(Cl)c(Cl)c2)cnc1-c1nc2cc(C(F)(F)F)ncc2n1C` [Compound P6]: the pest or weed control at 400 ppm in experiment [3], in experiment [4], in experiment [1], in experiment [7] and in experiment [2] was above 80% throughout. In addition, the pest or weed control at 12.5 ppm in experiment [6] was at least 80%.
Take `CCS(=O)(=O)c1cc(-c2ccc(C(F)(F)F)cc2)ccc1-c1nc2cc(C(F)(F)F)ncc2n1C` [Compound P27]: the pest or weed control at 400 ppm in experiment [3], in experiment [4], in experiment [1], in experiment [5] and in experiment [2] was above 80% throughout. Moreover, the pest or weed control at 12.5 ppm in experiment [6] was at least 80%.
The compound `CCS(=O)(=O)c1cc(-c2ccccc2OCCSC)cnc1-c1nc2cc(C(F)(F)F)ncc2n1C` [Compound P30] gave a pest or weed control at 400 ppm in experiment [3] above 80%.
Regarding `CCS(=O)(=O)c1cc(-c2ccc(Cl)cc2C)cnc1-c1nc2cc(C(F)(F)F)ncc2n1C` [Compound P14, 2-[5-(4-chloro-2-methyl-phenyl)-3-ethylsulfonyl-2-pyridyl]-3-methyl-6-(trifluoromethyl)imidazo[4,5-c]pyridine], the pest or weed control at 400 ppm in experiment [3], in experiment [4], in experiment [1], in experiment [7] and in experiment [2] was above 80% in each case.
Consider `CCS(=O)(=O)c1cc(-c2ccc(CC#N)cc2)cnc1-c1nc2cc(C(F)(F)F)ncc2n1C` [Compound P31], for which the pest or weed control at 400 ppm in experiment [4] and in experiment [7] was above 80% each time.
Regarding `CCS(=O)(=O)c1cc(-c2cccc(-c3nnco3)c2)cnc1-c1nc2cc(C(F)(F)F)ncc2n1C` [Compound P23], the pest or weed control at 400 ppm in experiment [3], in experiment [4], in experiment [1], in experiment [7] and in experiment [2] was above 80% in each case. Also, the pest or weed control at 12.5 ppm in experiment [6] was at least 80%.
As for `CCS(=O)(=O)c1cc(-c2ccccc2Cl)cnc1-c1nc2cc(C(F)(F)F)ncc2n1C` [Compound P12], the pest or weed control at 400 ppm in experiment [3], in experiment [4], in experiment [1], in experiment [7] and in experiment [2] was above 80% throughout.

(Values after patent US9775353B2, “Pesticidally active heterocyclic derivatives with sulphur containing substituents” (Syngenta Participations AG, priority 2014, dated 2017).)
